Consider 18 molecules from US7211574B2, “Selective D1/D5 receptor antagonists for the treatment of obesity and CNS disorders” (Schering Corporation, priority 2002, dated 2007).

The target of one test is T1, human D1 receptor (Homo sapiens, UniProt P21728).
T1 construct: expressed in transfected cells; host or cells: Ltk- cells (mouse fibroblast line), membrane preparation
The test can be described thus: radioligand binding competition assay, D1. As to the method: (§1) Affinity values (Ki) of compounds at human D1 and D2 receptors were ascertained using radioligand binding competition assays. Ltk- cells expressing D1 and D2 (long variant) receptors were lysed in hypotonic buffer for membrane preparation. Membranes were incubated with various concentrations of test compound and 1 nM [3H] of a compound of formula III and 0.2 nM [3H] Methylspiperone for D1 and D2 assays, respectively. Non-specific binding was defined as binding in the presence of 10 micromolar of a compound of formula III for D1 assays and 10 micromolar butaclamol for […]. Following incubation to equilibrium (1 hour at room temperature), bound radioligand was separated from free by rapid filtration. Bound radioactivity on the dried filters was quantified by liquid scintillation counting.

Test [1] has as its target T2, human D2 (long variant) receptor (Homo sapiens, UniProt P14416).
T2 construct: expressed in transfected cells; host or cells: Ltk- cells (mouse fibroblast line), membrane preparation
The test can be described thus: radioligand binding competition assay, D2. The following applies: membranes of Ltk- cells expressing D2 (long variant); 0.2 nM [3H] Methylspiperone; 1 hour at room temperature. As to the method: as §1

The mark [2] stands for this setting: membranes of Ltk- cells expressing D1, 1 nM [3H] compound of formula III, 1 hour at room temperature, read-out: D1 (Ki).

Where two headings read alike, the source gives them in different places.

T1 sequence (P21728 whole entry): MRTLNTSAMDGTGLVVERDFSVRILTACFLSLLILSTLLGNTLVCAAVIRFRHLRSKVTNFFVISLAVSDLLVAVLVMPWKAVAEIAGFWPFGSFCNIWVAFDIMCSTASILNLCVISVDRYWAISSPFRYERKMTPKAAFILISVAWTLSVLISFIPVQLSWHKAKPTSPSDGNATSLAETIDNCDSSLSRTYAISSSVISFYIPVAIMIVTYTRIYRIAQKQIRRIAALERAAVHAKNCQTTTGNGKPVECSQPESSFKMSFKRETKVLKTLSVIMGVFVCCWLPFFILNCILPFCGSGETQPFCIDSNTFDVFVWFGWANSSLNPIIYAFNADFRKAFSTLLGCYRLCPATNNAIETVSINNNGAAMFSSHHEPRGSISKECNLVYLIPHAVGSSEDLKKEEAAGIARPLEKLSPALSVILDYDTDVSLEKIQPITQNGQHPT

With `CN1CCc2cc(Cl)c3[nH]c(O)nc3c2[C@@H](c2ccccc2)C1` [Compound 16B], the Ki on human D1 receptor (setting [2]) stood at 0.35 µM.

Consider `O=c1[nH]c2c(Cl)cc3c(c2s1)[C@H]1c2ccccc2CC[C@@H]1NCC3` [Compound 26A], for which the Ki came to 0.0065 µM at human D1 receptor and 0.661 µM in test [1].

On to `CN1CCc2cc(Cl)c3[nH]nnc3c2[C@H]2c3ccccc3CC[C@@H]21` [Compound 15A], for which the Ki came to 0.146 µM on human D1 receptor (setting [2]) and 1.53 µM in test [1].

On to `O=c1[nH]c2c(Cl)cc3c(c2[nH]1)[C@H]1c2cccc(Br)c2CC[C@@H]1NCC3` [Compound 18C], for which the Ki at human D1 receptor (setting [2]) came out at 0.0113 µM; in test [1] it was 0.648 µM.

On to `Cc1cc2c3c(cc(Cl)c2[nH]1)CCN(C)[C@H]1CCc2ccccc2[C@H]31` [Compound 8], for which the Ki on human D1 receptor worked out at 0.0247 µM; in test [1], 0.232 µM.

Regarding `CN1CCc2cc(Cl)c3[nH]c(=S)[nH]c3c2[C@H]2c3ccccc3CC[C@@H]21` [Compound 17A], the figures for the Ki (at human D1 receptor; in test [1]) were 0.04 µM and 1.04 µM, respectively.

As to `Oc1nc2c(Cl)cc3c(c2[nH]1)[C@H]1c2ccccc2CC[C@@H]1NCC3` [Compound 18A], the figures for the Ki (at human D1 receptor; in test [1]) were 0.0165 µM and 3.27 µM, respectively.

On to `CN1CCc2cc(Cl)c3nc(O)sc3c2[C@@H](c2ccccc2)C1` [Compound 25B], for which the inhibition constant Ki is 0.115 µM at human D1 receptor (setting [2]) and 2.89 µM in test [1].

Regarding `CN1CCc2cc(Cl)c3[nH]c(O)nc3c2[C@H]2c3ccccc3CC[C@@H]21` [Compound 16A], the Ki came out at 0.007 µM on human D1 receptor and 1.02 µM in test [1].

As for `CN1CCc2cc(Cl)c3[nH]cnc3c2[C@H]2c3ccccc3CC[C@@H]21` [Compound 13A], the values for the Ki (at human D1 receptor (setting [2]); in test [1]) were 0.248 µM and 0.984 µM, respectively.

Regarding `CN1CCc2cc(Cl)c3[nH]c(=O)sc3c2[C@H]2c3ccccc3CC[C@@H]21` [Compound 25A], the Ki at human D1 receptor was found to be 0.0021 µM; in test [1], 0.257 µM.

Regarding `CN1CCc2cc(Cl)c3[nH]ncc3c2[C@@H](c2ccccc2)C1` [Compound 4], the Ki on human D1 receptor (setting [2]) turned out to be 0.014 µM; in test [1], 3.55 µM.

Turning to `CN1CCc2cc(Cl)c3[nH]c(=S)[nH]c3c2[C@@H](c2ccccc2)C1` [Compound 17B], on human D1 receptor (setting [2]), the Ki was 1.79 µM.

Take `O=c1[nH]c2c(Cl)cc3c(c2s1)[C@@H](c1ccccc1)CNCC3` [Compound 26B]: the Ki amounted to 1.08 µM at human D1 receptor (setting [2]) and 3.2 µM in test [1].

Consider `CN1CCc2cc(Cl)c3[nH]c(=O)[nH]c3c2[C@H]2c3cccc(-c4ccccc4)c3CC[C@@H]21` [Compound 27], for which the Ki at human D1 receptor (setting [2]) came out at 0.0019 µM; in test [1], 0.336 µM.

Take `CN1CCc2cc(Cl)c3[nH]c(=O)[nH]c3c2[C@H]2c3cccc(Br)c3CC[C@@H]21` [Compound 16C]: the Ki was 0.0061 µM at human D1 receptor (setting [2]) and 0.172 µM in test [1].

As to `Oc1nc2c(Cl)cc3c(c2[nH]1)[C@@H](c1ccccc1)CNCC3` [Compound 18B], the Ki on human D1 receptor (setting [2]) amounted to 1.9 µM.

Consider `Clc1cc2c(c3cn[nH]c13)[C@@H](c1ccccc1)CNCC2` [Compound 6], for which the Ki on human D1 receptor (setting [2]) was determined as 0.183 µM; in test [1], 5.01 µM.
